Data: patent publication US20260294871A1, “PHARMACEUTICAL COMBINATIONS AND COMPOSITIONS THEREOF COMPRISING ANTIBACTERIAL AGENTS” (priority 2023, published 2026)
Read-outs that look alike come from different tables or passages of the source.

How the values were obtained:
A. baumannii = test: Frequency of Resistance (FOR) Study, A. baumannii; also: key: TMTC: To more to count; format: cell-based; conditions: strain 8 - A. baumannii
Procedure: (§1) Objective: The in-vitro study was conducted to determine the frequency of resistance in 8 characterized isolates.
(§2) • Isolates: 8 isolates-E. coli (3), K. pneumoniae (2), A. baumannii (1) and P. aeruginosa (2) • Compound tested: Meropenem; Meropenem Avibactam (4); Meropenem EDTA (10 mM); Meropenem Avibactam (4) EDTA (10 mM) • Antibiotic Concentration used: […]

E. coli [1] = conditions: cited from earlier work
[2] = tested on: Enterobacterales isolates from India; test: MIC by broth microdilution against Enterobacterales; format: cell-based, Enterobacteriaceae
Procedure: (§3) In a typical study MIC tests were performed by broth microdilution in line with CLSI susceptibility testing standards. Bacterial inocula were prepared at ca. 1×10^6 CFU/mL by diluting 100-fold a 0.5 McFarland suspension in CA-MHB with TES. Microtiter plate wells containing 50 μL of antibacterial solutions at 2×the final concentrations were diluted 2-fold with 50 μL of inoculum to give a final inoculum of ca. 5×10^5 CFU/mL and desired test concentrations of antibacterial agents. Test microtiter plates were incubated according to CLSI guidelines and read visually. MIC values corresponded to the first well with no visible growth.
The results of antibacterial activity of amikacin, Ceftazidime-avibactam, Ceftriaxone with sulbactam and EDTA, Meropenem and Meropenem with avibactam and EDTA against highly resistant strains of Enterobacteriaceae are given in Table 2.

K. pneumoniae [3] = test: Frequency of Resistance (FOR) Study, K. pneumoniae; format: cell-based
Procedure: as §1, §2

[4] = tested on: E. coli, K. pneumoniae, P. aeruginosa A. baumannii and E. cloacae; test: Effects of body fluids on MIC, all tested isolates; format: cell-based, Gram-negatives clinical isolates
Procedure: Objective: The combinations of meropenem (MEM) in the presence of different concentrations of avibactam (AVI) and EDTA were tested. The triple combination test compounds were investigated for in-vitro activity in presence cation-adjusted Mueller Hinton broth (CA-MHB) and CA-MHB supplemented with different body fluids i.e. human serum (25% and 50%), pooled urine (25% and 50%), bovine Surfactant (1 and 5%) and human peritoneal fluid (25 and 50%) against the a set of Gram-negatives clinical isolates from India.
Method: The tolerance screening was performed on a total of 60 isolates to ascertain tolerance to body fluids and total 19 isolates including ATCC strains and non-duplicate clinically relevant Escherichia coli (n=6), Klebsiella pneumoniae (n=3), Pseudomonas aeruginosa (n=6) Acinetobacter baumannii (n=3) and Enterobacter cloacae (n=1) were selected prior to susceptibility testing. Tested compounds included Meropenem with AVI at 4 and EDTA at 10 mM (MEM/A4/E10), Meropenem with AVI at 4 and EDTA at 20 mM (MEM/A4/E20), Meropenem with AVI at 8 and EDTA at 10 mM (MEM/A8/E10), Meropenem with AVI at 8 and EDTA at 20 mM (MEM/A8/E20), Meropenem (MEM), Ceftriaxone with sulbactam at […] and EDTA at 10 mM (CRO/S10/E10), Ceftazidime-avibactam (CZA), Amikacin (AMK), Tigecycline and Minocycline. […]

E. coli [5] = test: Frequency of Resistance (FOR) Study, E. coli; format: cell-based
Procedure: as §1, §2

K. pneumoniae [6] = test: MIC by broth microdilution against Klebsiella; format: cell-based, Klebsiella pneumoniae
Procedure: as §3
The results of antibacterial activity of amikacin, Ceftazidime-avibactam, Ceftriaxone with sulbactam and EDTA, Meropenem and Meropenem with avibactam and EDTA against highly resistant strains of Klebsiella (93. 3% Mem NS) are given in Table 4.

[7] = tested on: all grouped isolates from India; test: MIC by broth microdilution against all grouped isolates from India; format: cell-based, resistant bacterial strains
Procedure: as §3
There was a marked improvement in antibacterial activity, compared to MEM alone, observed for the triple combinations, for MEM/AVI [4 mg/L]/EDTA [10 mM] and MEM/AVI [4 mg/L]/EDTA [20 mM], the reduction in MIC90 was 0.06 μg/mL and ≤0.002 μg/mL, respectively.

Acinetobacter baumannii = test: MIC by broth microdilution against Acinetobacter baumannii; format: cell-based
Procedure: as §3
The results of antibacterial activity of amikacin, Ceftazidime-avibactam, Ceftriaxone with sulbactam and EDTA, Meropenem and Meropenem with avibactum and EDTA against highly resistant strains of Acinetobacter baumannii are given in Table 7.

[8] = tested on: Non-Enterobacteriaceae (non-fermenter isolates); test: MIC by broth microdilution against Non-Enterobacteriaceae; format: cell-based
Procedure: as §3

K. pneumoniae [9] = test: MIC of Time Kill Assay isolates, K. pneumoniae; format: cell-based; conditions: Klebsiella pneumoniae; TKA isolates
Procedure: Objective: The in-vitro Time Kill Assay study was conducted to determine the log reduction in 5 characterised MDR isolates.
• Isolates: 5 isolates-E. coli (3), K. pneumoniae (2) • Compound tested: Meropenem; Meropenem Avibactam (4); Meropenem EDTA (10 mM); Meropenem Avibactam (4) EDTA (10 mM) • 1 log—90% killing, 2 log 99% killing and 3 log 99.9% killing. Bactericidal: 3 log reduction (99.9% killing) • MIC: […]

## C[C@@H](O)[C@H]1C(=O)N2C(C(=O)O)=C(S[C@@H]3CN[C@H](C(=O)N(C)C)C3)[C@H](C)[C@H]12 [Meropenem, (4R,5S,6S)-3-(((3S,5S)-5-(dimethylcarbamoyl)pyrrolidin-3-yl)thio)-6-((R)-1-hydroxyethyl)-4-methyl-7-oxo-1-azabicyclo[3.2.0]hept-2-ene-2-carboxylic acid]
A. baumannii; ATB concentration 4x
  count, 24 H of Incubation: TMTC
A. baumannii; ATB concentration 8x
  count, 24 H of Incubation: TMTC
A. baumannii; ATB concentration 16x
  count, 24 H of Incubation: TMTC
E. coli [1]
  CLSI Range of MIC: 0.008 to 0.06 µg/mL
[2]
  MIC50: > 32 µg/mL
  MIC90: > 32 µg/mL
[2]; 250 out of 301
  isolates resistant to meropenem (MEM NS): 82.7%
[2]; MEM-NS isolates (n=250)
  MIC50: > 32 µg/mL
  MIC90: > 32 µg/mL
[2]; n=301
  MIC50: >32 µg/mL
  MIC90: >32 µg/mL
K. pneumoniae [3]; strain 6 - K. pneumoniae, ATB concentration 4x
  count, 24 H of Incubation: TMTC
K. pneumoniae [3]; strain 6 - K. pneumoniae, ATB concentration 8x
  count, 24 H of Incubation: 303
K. pneumoniae [3]; strain 6 - K. pneumoniae, ATB concentration 16x
  count, 24 H of Incubation: 0
K. pneumoniae [3]; strain 7 - K. pneumoniae, ATB concentration 4x
  count, 24 H of Incubation: TMTC
K. pneumoniae [3]; strain 7 - K. pneumoniae, ATB concentration 8x
  count, 24 H of Incubation: TMTC
K. pneumoniae [3]; strain 7 - K. pneumoniae, ATB concentration 16x
  count, 24 H of Incubation: TMTC
[4]
  MIC: > 32 µg/mL
E. coli [5]; strain 1 - E. coli, ATB concentration 4x
  count, 24 H of Incubation: 0
E. coli [5]; strain 1 - E. coli, ATB concentration 8x
  count, 24 H of Incubation: 0
E. coli [5]; strain 1 - E. coli, ATB concentration 16x
  count, 24 H of Incubation: 0
E. coli [5]; strain 4 - E. coli, ATB concentration 4x
  count, 24 H of Incubation: TMTC
E. coli [5]; strain 4 - E. coli, ATB concentration 8x
  count, 24 H of Incubation: TMTC
E. coli [5]; strain 4 - E. coli, ATB concentration 16x
  count, 24 H of Incubation: TMTC
E. coli [5]; strain 5 - E. coli, ATB concentration 4x
  count, 24 H of Incubation: 0
E. coli [5]; strain 5 - E. coli, ATB concentration 8x
  count, 24 H of Incubation: 0
E. coli [5]; strain 5 - E. coli, ATB concentration 16x
  count, 24 H of Incubation: 0
K. pneumoniae [6]; Klebsiella pneumoniae, MEM-NS isolates (n=112), read-out: MIC50
  MIC50: > 32 µg/mL
K. pneumoniae [6]; Klebsiella pneumoniae, highly resistant strains, read-out: MIC90
  MIC90: > 32 µg/mL
K. pneumoniae [6]; MEM-NS isolates (n=112)
  MIC90: > 32 µg/mL
K. pneumoniae [6]; highly resistant strains
  MIC50: >32 µg/mL
  MIC90: >32 µg/mL
K. pneumoniae [6]; n=112, listed as MEM
  MEM-NS isolates: 93.3%
[7]
  MIC50: > 32 µg/mL
  MIC90: > 32 µg/mL
[7]; MEM-NS isolates (n=534)
  MIC90: > 32 µg/mL
[7]; all grouped isolates (606)
  MIC50: >32 µg/mL
  MIC90: > 32 µg/mL
Acinetobacter baumannii; Acinetobacter baumannii
  MIC90: > 32 µg/mL
Acinetobacter baumannii; Acinetobacter baumannii, highly resistant strains
  MIC50: > 32 µg/mL
Acinetobacter baumannii; MEM-NS isolates (n=163)
  MIC90: > 32 µg/mL
Acinetobacter baumannii; highly resistant strains
  MIC90: >32 µg/mL
Acinetobacter baumannii; n=163
  MEM-NS isolates: 98.2%
[8]
  MIC50: > 32 µg/mL
  MIC90: > 32 µg/mL
[8]; highly resistant strains
  MIC50: >32 µg/mL
  MIC90: >32 µg/mL
[8]; highly resistant strains, listed as MEM
  MIC90: > 32 µg/mL
[8]; n=284
  MEM-NS isolates: 88.9%
K. pneumoniae [9]
  MIC: > 32 µg/mL
